Data from patent publication US20220008359A1, “COMBINATION ANTI-CANCER PRODUCTS AND METHODS” (priority 2020, published 2022).
Marks after values point to notes of the source that are not given here.

Legend:
[1] = system: afatinib-resistant (AR) H1975 cells; test: In-cell immunostaining of protein expression and phosphorylation, afatinib-resistant H1975 cells; format: cell-based, human; details: 1975 AR; 6 h; GZ17-6.02 2 mM final curcumin, pemetrexed 500 nM; vehicle 100%
Description: […] Cells were fixed in place 6 hours after treatment and immunostaining of single cells performed to determine the levels of each protein/phosphor-protein (n=3+/−SD). * p<0.05 less than vehicle control; # p<0.05 greater than vehicle control.
Generation of erlotinib, afatinib and osimertinib-resistant cells. Cells were incubated in vitro with increasing concentrations of vehicle control or erlotinib or osimertinib until after ˜6 weeks the HCC827 and H1975 and H1650 cells grew with similar kinetics to sensitive cells in either erlotinib ([…]) or osimertinib ([…]), respectively. Afatinib-resistant cells were created in vivo by repeated high dosing until tumors disappeared and then regrew, as previously described.
(§1) Assessments of protein expression and protein phosphorylation. Multi-channel fluorescence HCS microscopes perform true in-cell western blotting. Three independent cultures derived from three thawed vials of cells of a tumor were sub-cultured into individual 96-well plates. Twenty-four hours after plating, the cells are transfected with a control plasmid or a control siRNA, or with an empty vector plasmid or with plasmids to express various proteins. After another 24 hours, the cells are ready for drug exposure(s). At various time-points after the initiation of drug exposure, cells are fixed in place using paraformaldehyde and using Triton X100 for permeabilization. Standard immunofluorescent blocking procedures are employed, followed by incubation of different wells with a variety of validated primary antibodies and subsequently validated fluorescent-tagged secondary antibodies are added to each well. The microscope determines the background fluorescence in the well and in parallel randomly determines the mean fluorescent intensity of 100 cells per well.

H1650 cells (wild type) = test: In-cell immunostaining of protein expression and phosphorylation, H1650 wild type cells; format: cell-based, human; details: H1650 WT, 6 h; VEH = 100
Description: as §1

**Q.** For `Nc1nc2[nH]cc(CCc3ccc(C(=O)N[C@@H](CCC(=O)O)C(=O)O)cc3)c2c(=O)[nH]1` [PEM, Pemetrexed], which ATG5 [1] is on record?
**A.** 107%

**Q.** What about the Beclin1 [1] of the same compound?
**A.** 111%

**Q.** What about the CD95 [1] of the same compound?
**A.** 101%

**Q.** What about the CHOP [1] of the same compound?
**A.** 104%

**Q.** And the ERBB1 [1]?
**A.** 101%

**Q.** And the ERBB2 [1]?
**A.** 100%

**Q.** What about the ERBB3 [1] of the same compound?
**A.** 99%

**Q.** What about the ERBB4 [1] of the same compound?
**A.** 100%

**Q.** What about the ERK2 [1] of the same compound?
**A.** 99%

**Q.** And the FAS-L [1]?
**A.** 108%

**Q.** What about the GRP78 [1] of the same compound?
**A.** 109%

**Q.** What about the JAK2 [1] of the same compound?
**A.** 100%

**Q.** And the “P-AKT T308” value [1]?
**A.** 88%

**Q.** And the “P-AMPKα T172” value [1]?
**A.** 107%

**Q.** And the “P-ATG13 S318” value [1]?
**A.** 105%

**Q.** What about the “P-ATM S1980” value [1] of the same compound?
**A.** 108%

**Q.** And the P-B1 [1]?
**A.** 93%

**Q.** And the P-B2 [1]?
**A.** 97%

**Q.** And the P-B3 [1]?
**A.** 97%

**Q.** What about the P-B4 [1] of the same compound?
**A.** 96%

**Q.** And the P-ERK1/2 [1]?
**A.** 98%

**Q.** And the P-JAK2 [1]?
**A.** 87* %

**Q.** What about the “P-NFκB S536” value [1] of the same compound?
**A.** 98%

**Q.** And the P-PDGFRβ [1]?
**A.** 84* %

**Q.** What about the “P-PERK T980” value [1] of the same compound?
**A.** 102%

**Q.** And the “P-SRC Y416” value [1]?
**A.** 92%

**Q.** What about the “P-SRC Y527” value [1] of the same compound?
**A.** 109%

**Q.** What about the “P-STAT3 Y705” value [1] of the same compound?
**A.** 95%

**Q.** What about the “P-STAT5 Y694” value [1] of the same compound?
**A.** 94%

**Q.** What about the “P-ULK1 S317” value [1] of the same compound?
**A.** 105%

**Q.** And the “P-ULK1 S757” value [1]?
**A.** 95%

**Q.** And the P-c-MET [1]?
**A.** 102%

**Q.** And the P-c-MT [1]?
**A.** 88%

**Q.** What about the “P-eIF2α S51” value [1] of the same compound?
**A.** 103%

**Q.** And the “P-mTOR S2448” value [1]?
**A.** 95%

**Q.** And the “P-mTOR S2481” value [1]?
**A.** 83* %

**Q.** What about the PDGFRβ [1] of the same compound?
**A.** 100%

**Q.** What about the PP1 [1] of the same compound?
**A.** 104%

**Q.** What about the c-KIT [1] of the same compound?
**A.** 101%

**Q.** And the c-MET [1]?
**A.** 100%

**Q.** What about the “p70 S6K” value [1] of the same compound?
**A.** 100%

**Q.** And the “p70 S6K T389” value [1]?
**A.** 97%

**Q.** And the BCL-XL expression (H1650 cells (wild type))?
**A.** 84*

**Q.** And the ERK2 expression (H1650 cells (wild type))?
**A.** 100

**Q.** And the FLIP-s expression (H1650 cells (wild type))?
**A.** 92

**Q.** What about the MCL-1 expression (H1650 cells (wild type)) of the same compound?
**A.** 83*
